In one data set the target is Prostanoid EP4 (Homo sapiens, UniProt P35408). Briefly: Lead Profiling Screen, Eurofins Panlabs. It counts as binding. The note with it: Prostanoid EP4, hum, read-out: % inh at 10 μM.
The test system of another data set is Glutamate, NMDA, Agonism. Briefly: Lead Profiling Screen, Eurofins Panlabs. It counts as binding. Particulars: rat. The text has this:
(§1) Nonetheless, as a non-aryl/heterobiaryl acetylene mGlu5 NAM with an encouraging in vivo rodent PK profile, we wished to further assess VU6043653 as a novel chemotype. Therefore, we compared metabolites in multiple species to better understand species differences in clearance and metabolism. […] Consistent with the high plasma clearance observed in dogs, high turnover was observed more so in dog hepatocytes than any other species tested (see the Supporting Information for additional details and results). To further evaluate our novel chemotype, the off-target and safety/toxicity profiles for this compound were further investigated.
(§2) Table S2. Lead Profiling Screen – Eurofins Panlabs for VU6043653.
(§3) Assay Name Species % inh at 10 μM […]

Data set [1] has as its system Calcium Channel L-Type, Benzothiazepine. The data set is described as follows: Lead Profiling Screen, Eurofins Panlabs. Type of data set: binding. The note with it: rat.
Text: as §1, §2, §3

The target in data set [2] is Epidermal Growth Factor (EGF) (Homo sapiens, UniProt P00533). The data set is described as follows: Lead Profiling Screen, Eurofins Panlabs. It counts as binding. Particulars: hum, read-out: % inh at 10 μM.
Epidermal Growth Factor (EGF), sequence (P00533 25-1210): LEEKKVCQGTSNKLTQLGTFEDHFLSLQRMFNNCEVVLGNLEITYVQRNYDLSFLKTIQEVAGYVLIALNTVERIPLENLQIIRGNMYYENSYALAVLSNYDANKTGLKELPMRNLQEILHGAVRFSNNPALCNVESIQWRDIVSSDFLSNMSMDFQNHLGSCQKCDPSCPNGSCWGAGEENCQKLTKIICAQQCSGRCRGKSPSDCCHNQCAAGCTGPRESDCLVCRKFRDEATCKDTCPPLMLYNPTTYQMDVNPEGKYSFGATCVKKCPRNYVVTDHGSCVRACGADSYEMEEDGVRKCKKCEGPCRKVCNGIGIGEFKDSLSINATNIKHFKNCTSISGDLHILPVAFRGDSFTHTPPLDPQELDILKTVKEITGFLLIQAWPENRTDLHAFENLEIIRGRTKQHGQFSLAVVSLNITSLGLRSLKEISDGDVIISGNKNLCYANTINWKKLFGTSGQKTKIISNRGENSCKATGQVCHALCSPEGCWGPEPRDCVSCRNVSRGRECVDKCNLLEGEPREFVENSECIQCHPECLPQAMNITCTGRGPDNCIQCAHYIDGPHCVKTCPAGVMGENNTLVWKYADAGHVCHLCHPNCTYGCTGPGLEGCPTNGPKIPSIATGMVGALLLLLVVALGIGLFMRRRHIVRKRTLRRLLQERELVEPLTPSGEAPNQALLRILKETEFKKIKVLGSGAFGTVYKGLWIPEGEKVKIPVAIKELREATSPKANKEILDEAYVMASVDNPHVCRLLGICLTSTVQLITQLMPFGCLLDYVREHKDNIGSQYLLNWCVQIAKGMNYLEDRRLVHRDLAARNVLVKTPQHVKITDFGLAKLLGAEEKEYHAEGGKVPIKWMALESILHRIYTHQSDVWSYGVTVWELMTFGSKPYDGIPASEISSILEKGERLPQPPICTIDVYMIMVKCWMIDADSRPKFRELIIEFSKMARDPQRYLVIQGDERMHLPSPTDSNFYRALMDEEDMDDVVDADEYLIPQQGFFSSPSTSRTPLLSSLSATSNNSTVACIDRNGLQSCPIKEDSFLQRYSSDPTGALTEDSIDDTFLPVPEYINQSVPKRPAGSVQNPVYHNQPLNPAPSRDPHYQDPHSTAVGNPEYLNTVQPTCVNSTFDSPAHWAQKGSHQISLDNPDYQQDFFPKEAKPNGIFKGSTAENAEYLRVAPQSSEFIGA
Text: as §1, §2, §3

The next data set addresses Glutamate, NMDA, Glycine (Rattus norvegicus, UniProt P35439). The data set is described as follows: Lead Profiling Screen, Eurofins Panlabs. It counts as binding. The note with it: read-out: % inh at 10 μM.
Text: as §1, §2, §3

In a further data set the target is Calcium Channel N-Type (Rattus norvegicus, UniProt Q02294). Briefly: Lead Profiling Screen, Eurofins Panlabs. Type of data set: binding. The note with it: read-out: % inh at 10 μM.
Text: as §1, §2, §3

Data set [3] relates to GABAA, Flunitrazepam, Central. Briefly: Lead Profiling Screen, Eurofins Panlabs. It counts as binding. The note with it: rat.
Text: as §1, §2, §3

The test system of data set [4] is Glutamate, NMDA, Phencyclidine. Briefly: Lead Profiling Screen, Eurofins Panlabs. Type of data set: binding. The note with it: rat.
Text: as §1, §2, §3

The test system of the next data set is Glutamate, Kainate. The data set is described as follows: Lead Profiling Screen, Eurofins Panlabs. Type of data set: binding. The note with it: rat.
Text: as §1, §2, §3

A further data set deals with GABAA, Muscimol, Central. Briefly: Lead Profiling Screen, Eurofins Panlabs. Type of data set: binding. Particulars: rat.
Text: as §1, §2, §3

For data set [5], the system named is Calcium Channel L-Type, Dihydropyridine. The data set is described as follows: Lead Profiling Screen, Eurofins Panlabs. It counts as binding. Particulars: rat.
Text: as §1, §2, §3

Data set [6] in a line: Binding in plasma from rat (equilibrium dialysis). It counts as in vitro ADME. The note with it: rat, plasma, fraction unbound; equilibrium dialysis; read-out: Rat fu,plasma. As for the experimental part: Binding in plasma from rat and human.
Determination of compounds’ fraction unbound (f u) in plasma from rat and human was conducted in vitro via equilibrium dialysis using HTDialysis membrane plates. Dialysis membranes (four paired strips per HTD assay) were hydrated as described by the manufacturer and inserted into the HTD plate, which was assembled and prepared for sample addition by the dispensing of blank buffer (DPBS, 100 µL/well) into the ‘top half’ of each membrane-split well. Each compound was diluted into plasma from each species (5 µM final concentration), which was aliquoted in triplicate to the ‘bottom half’ of the prepared HTD plate wells. The HTD plate was sealed and incubated for 6 hours at 37 °C. Following incubation, each well (both top and bottom halves) were transferred (20 µL) to the corresponding wells of a 96-shallow-well (V-bottom) plate. The daughter plates were then matrix-matched (buffer side wells received equal volume of plasma, and plasma side wells received equal volume of buffer), and extraction solution (120 µL; acetonitrile containing 50 nM carbamazepine as IS) was added to all wells of both daughter plates to precipitate protein and extract test article. The plates were then sealed and centrifuged (3500 rcf) for 10 minutes at ambient temperature. Supernatant (60 µL) from each well of the daughter plates was then transferred to the corresponding wells of new daughter plates (96-shallow-well, V bottom) containing water (Milli-Q, 60 µL/well), and the plates were sealed in preparation for LC-MS/MS analysis (see below). fu was calculated as (analyte to IS MS peak area ratio from Trans-buffer side) / (analyte to IS MS peak area ratio from Cis-plasma side). Mean values for each species were calculated from 3 replicates. […]
Mean values for each species were calculated from 3 replicates. […]
After 5 minutes (pre-incubation), reactions were initiated by addition of nicotinamide adenine dinucleotide phosphate (NADPH, 1 mM final concentration). At selected time intervals (0, 3, 7, 15, 25, and 45 minutes) post-addition of NADPH, aliquots (50 µL) were taken and placed into a 96-shallow-well plate containing ice cold acetonitrile (150 µL) with carbamazepine (IS, 50 nM). The plates were then centrifuged (3000 rcf at 4 °C) for 10 minutes. The supernatants were transferred to a new 96-shallow-well daughter plate and diluted (1:1 v/v) with water (Milli-Q filtered). The plates were then sealed in preparation for LC-MS/MS analysis (see below).

The target in another data set is Opiate μ (OP3, MOP) (Homo sapiens, UniProt P35372). Briefly: Lead Profiling Screen, Eurofins Panlabs. The note with it: hum, read-out: % inh at 10 μM. Type of data set: binding.
Opiate μ (OP3, MOP), sequence (P35372 whole entry): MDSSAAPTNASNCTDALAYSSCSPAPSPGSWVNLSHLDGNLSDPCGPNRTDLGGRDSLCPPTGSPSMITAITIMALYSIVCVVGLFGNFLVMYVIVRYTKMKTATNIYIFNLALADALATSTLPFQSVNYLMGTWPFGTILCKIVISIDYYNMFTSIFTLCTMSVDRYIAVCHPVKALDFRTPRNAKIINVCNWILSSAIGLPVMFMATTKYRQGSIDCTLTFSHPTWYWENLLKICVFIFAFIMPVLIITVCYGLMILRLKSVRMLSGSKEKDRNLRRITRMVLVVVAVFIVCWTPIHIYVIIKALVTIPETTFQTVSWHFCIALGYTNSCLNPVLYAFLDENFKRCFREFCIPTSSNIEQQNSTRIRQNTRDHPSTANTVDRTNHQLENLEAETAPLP
The next data set deals with Neuropeptide Y Y2 (Homo sapiens, UniProt P49146). Briefly: Lead Profiling Screen, Eurofins Panlabs. The note with it: Neuropeptide Y Y2, hum, read-out: % inh at 10 μM. It counts as binding.
Neuropeptide Y Y2, sequence (P49146 whole entry): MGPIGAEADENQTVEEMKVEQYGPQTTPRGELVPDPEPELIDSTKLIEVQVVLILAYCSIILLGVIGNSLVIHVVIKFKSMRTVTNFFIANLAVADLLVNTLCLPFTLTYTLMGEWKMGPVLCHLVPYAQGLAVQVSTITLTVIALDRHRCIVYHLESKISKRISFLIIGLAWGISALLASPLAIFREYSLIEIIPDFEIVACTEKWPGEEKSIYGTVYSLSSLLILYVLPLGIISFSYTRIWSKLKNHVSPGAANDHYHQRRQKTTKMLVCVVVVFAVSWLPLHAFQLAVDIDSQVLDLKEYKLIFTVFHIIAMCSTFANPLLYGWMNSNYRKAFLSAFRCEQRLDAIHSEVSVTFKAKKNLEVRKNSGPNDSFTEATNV
For a further data set, the system named is Transporter, GABA. Briefly: Lead Profiling Screen, Eurofins Panlabs. It counts as binding. The note with it: rat.
Another data set has as its target Tachykinin NK1 (Homo sapiens, UniProt P25103). The data set is described as follows: Lead Profiling Screen, Eurofins Panlabs. The note with it: Tachykinin NK1, hum, read-out: % inh at 10 μM. It counts as binding.

Tachykinin NK1, sequence (P25103 whole entry): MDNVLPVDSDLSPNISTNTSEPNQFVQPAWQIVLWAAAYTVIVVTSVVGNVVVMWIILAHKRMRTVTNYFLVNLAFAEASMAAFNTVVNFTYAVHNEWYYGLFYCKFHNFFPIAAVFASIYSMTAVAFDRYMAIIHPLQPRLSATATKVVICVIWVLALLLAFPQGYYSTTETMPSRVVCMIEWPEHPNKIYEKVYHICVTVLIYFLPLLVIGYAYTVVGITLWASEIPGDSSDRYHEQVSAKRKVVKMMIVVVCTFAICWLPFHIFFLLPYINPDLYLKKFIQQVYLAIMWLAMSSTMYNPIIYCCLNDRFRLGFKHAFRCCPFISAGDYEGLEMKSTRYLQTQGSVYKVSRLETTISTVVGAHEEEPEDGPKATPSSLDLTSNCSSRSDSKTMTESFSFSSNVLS
Glutamate, NMDA, Glycine, sequence (P35439 394-800 limits assumed): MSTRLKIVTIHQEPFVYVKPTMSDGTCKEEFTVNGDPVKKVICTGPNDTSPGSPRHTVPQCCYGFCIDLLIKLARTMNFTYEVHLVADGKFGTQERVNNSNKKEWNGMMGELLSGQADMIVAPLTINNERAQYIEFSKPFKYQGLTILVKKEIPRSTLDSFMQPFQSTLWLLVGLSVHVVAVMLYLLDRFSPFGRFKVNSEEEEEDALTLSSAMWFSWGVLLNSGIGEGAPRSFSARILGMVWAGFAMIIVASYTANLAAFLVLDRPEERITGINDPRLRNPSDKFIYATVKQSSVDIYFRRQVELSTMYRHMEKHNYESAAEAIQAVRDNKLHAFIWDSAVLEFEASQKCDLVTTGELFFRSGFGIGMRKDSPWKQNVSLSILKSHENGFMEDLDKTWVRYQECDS
Prostanoid EP4, sequence (P35408 whole entry): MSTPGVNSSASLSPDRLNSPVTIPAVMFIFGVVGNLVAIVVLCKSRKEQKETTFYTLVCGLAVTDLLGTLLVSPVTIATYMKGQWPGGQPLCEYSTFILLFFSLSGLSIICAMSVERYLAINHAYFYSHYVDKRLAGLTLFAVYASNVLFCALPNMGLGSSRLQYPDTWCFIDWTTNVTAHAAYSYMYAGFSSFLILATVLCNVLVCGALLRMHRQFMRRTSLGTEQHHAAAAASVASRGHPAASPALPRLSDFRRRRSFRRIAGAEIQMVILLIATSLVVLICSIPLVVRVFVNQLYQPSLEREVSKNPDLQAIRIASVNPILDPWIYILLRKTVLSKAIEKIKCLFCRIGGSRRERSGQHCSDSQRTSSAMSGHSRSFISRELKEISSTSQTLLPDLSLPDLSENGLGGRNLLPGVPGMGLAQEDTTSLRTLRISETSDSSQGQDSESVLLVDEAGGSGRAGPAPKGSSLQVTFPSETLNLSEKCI

Turning to `Cc1cc(Oc2cnn(C)c2)cc(C(=O)Nc2ccc(F)cn2)n1` [22iA], the inhibition at 10 µM is 8% on Prostanoid EP4; -3% in data set [2]; -18% on Glutamate, NMDA, Glycine; -8% at Calcium Channel N-Type; 9% on Opiate μ (OP3, MOP); -5% at Neuropeptide Y Y2. Further, on Tachykinin NK1, the inhibition at 10 µM is 15%. In addition, the “% inh at 10 μM” value in the data set on Glutamate, NMDA, Agonism is given as 3%; in [1], 22%; in data set [3], 0%; in data set [4], -4%; with Glutamate, Kainate, -7%; in the data set with GABAA, Muscimol, Central, -5%. The “% inh at 10 μM” value in data set [5] is given as 1%; with Transporter, GABA it was -1%. Moreover, the fraction unbound at 6 h, 5 µM in data set [6] turned out to be 0.059.

For the origin of these results see article PMC11647725, “Discovery of 4-(5-Membered)Heteroarylether-6-methylpicolinamide Negative Allosteric Modulators of Metabotropic Glutamate Receptor Subtype 5” (ACS Medicinal Chemistry Letters, 2024).
